This is an account of results in patent publication US20240148707A1, “MODULATION OF DRUG-DRUG INTERACTIONS OF VADADUSTAT” (Akebia Therapeutics, Inc., priority 2021, published 2024).

The Cmax is the highest concentration seen after dosing.

Holding throughout (type): in vivo, human
The nature of series [1]: Phase 1 drug-drug interaction study, vadadustat as perpetrator with adefovir (Arm 2). As to conditions: for AUC(0-inf) / AUC(0-t) / Cmax: both sexes, human, plasma. How it is done:
A Phase 1, open-label, fixed sequence study was conducted in healthy male and female subjects to evaluate vadadustat as a perpetrator of DDIs with digoxin and/or adefovir.
On the morning of Day 1, subjects received a single oral dose of adefovir 10 mg after at least a 10-hour overnight fast. Subjects remained fasted for at least 4 hours after dosing. Following a 3-day washout period, subjects received vadadustat 600 mg QD beginning on Day 4 for 5 days (Days 4-8). When administered alone, vadadustat was administered in the morning at least 30 minutes prior to breakfast. On Day 7 subjects received their morning dose of vadadustat 600 mg along with a single oral dose of adefovir 10 mg after at least a 10-hour overnight fast.

Series [2] is described as follows: Phase I drug-drug interaction study with probenecid (Part 1, Arm 2). The settings on record: for increase in exposure (AUC): administered with multiple doses of probenecid vs vadadustat alone. Here is the method: (§1) A phase I, open-label, 2-part study was conducted in healthy male and female subjects to evaluate the potential for interaction of cyclosporine (Part 1, Arm 1), probenecid (Part 1, Arm 2), and rifampin (Part 2) with vadadustat.
On the morning of Day 1, subjects received a single oral dose of vadadustat (300 mg) as 2×150 mg tablets after at least a 10-hour overnight fast and remained fasted for at least 4 hours post-dose. Following a 2-day washout (Days 1 to 2), subjects received 1 oral probenecid 500 mg tablet Q12 h for 4 days (Days 3 to 6). On days that probenecid was administered alone (Days 3, 4, and 6), probenecid was administered in a fasted state 1 hour prior to a standard breakfast and 1 hour prior to an evening meal or snack. On Day 5, probenecid was co-administered with a single dose of vadadustat (300 mg as 2×150 mg tablets) following at least a 10-hour fast. Subjects remained fasted for at least 4 hours after dosing.
On days vadadustat was administered (Day 1 and Day 5), blood samples for PK analysis were collected up to 48 hours postdose. In addition, on vadadustat dosing days, pooled urine samples were collected up to 24 hours post-dose. Subjects were discharged from the CRU on the morning of Day 7, after the final 48-hour post-dose PK sample had been collected. A follow-up phone call was conducted 30 days±2 days after the final dose.

Series [3] in a line: Phase I drug-drug interaction study with cyclosporine (Part 1, Arm 1). How it is done: as §1
Subjects were randomized in a 1:1 ratio to 1 of 2 dosing sequences (A:B or B:A) to receive vadadustat 300 mg alone and vadadustat 300 mg in combination with oral cyclosporine 500 mg in a crossover design. Study drugs were administered in the morning after at least a 10-hour overnight fast. Subjects remained fasted for at least 4 hours post-dose. • Treatment A: a single oral dose of vadadustat (300 mg) administered as 2×150 mg tablets. • Treatment B: a single oral dose of vadadustat (300 mg) administered as 2×150 mg tablets co-administered with a single oral dose of cyclosporine (500 mg) administered as 5×100 mg capsules.
On the morning of Day 1, subjects received the first treatment (A or B). Following a 7-day washout, subjects crossed over to Period 2 to receive the second treatment of the dosing sequence (A or B) on Day 8.
On each dosing day (Day 1 and Day 8) blood samples for PK analysis were collected up to 48 hours post-dose. Subjects were discharged from the clinical research unit (CRU) on the morning of Day 10, after the final 48-hour post-dose PK sample had been collected. A follow-up phone call was conducted 30 days±2 days after the final dose.

Series [4] can be described thus: [14C]-labeled Compound 1 metabolism and excretion study in healthy adult males. As to conditions: healthy adult male (6), single oral 650 mg [14C]-labeled Compound 1. The source says:
The urinary excretion rate of this drug and acyl glucuronide is less than 1% of the total radioactivity.

A short description of series [5]: Phase 1 drug-drug interaction study, vadadustat as perpetrator with digoxin (Arm 1).
Protocol: A Phase 1, open-label, fixed sequence study was conducted in healthy male and female subjects to evaluate vadadustat as a perpetrator of DDIs with digoxin and/or adefovir. […] Subjects remained fasted for at least 4 hours after dosing. Following a 12-day washout period, subjects received vadadustat 600 mg QD beginning on Day 13 for 7 days (Days 13-19).
Where [6] appears, read: adefovir 10 mg with vs without vadadustat 600 mg QD.
[7] abbreviates: vadadustat 300 mg alone, single oral dose, fasted.
The mark [8] stands for this setting: vadadustat 300 mg single dose + probenecid 500 mg Q12h (multiple doses), fasted.
The mark [9] stands for this setting: vadadustat 300 mg with vs without probenecid 500 mg Q12h.
[10] abbreviates: vadadustat 300 mg + cyclosporine 500 mg, single oral doses, fasted.
[11] abbreviates: vadadustat 300 mg with vs without cyclosporine 500 mg.
Where [12] appears, read: digoxin 0.5 mg single dose with vadadustat 600 mg QD (Day 16).
Where [13] appears, read: digoxin 0.5 mg with vs without vadadustat 600 mg QD.

Where two headings read alike, the source gives them in different places.

For the compound `Nc1ncnc2c1ncn2CCOCP(=O)(O)O` [adefovir], in series [1] (setting [6]), the “AUCinf, Ratio (V + A)/A” value is recorded as 114.70%. Also, in series [1] (setting [6]), the “AUClast, Ratio (V + A)/A” value came out at 114.74%. In series [1] (setting [6]), the “Cmax, Ratio (V + A)/A” value stood at 95.15%. For the same compound, the “systemic exposure to adefovir” value in series [1] (adefovir administered with vadadustat vs adefovir alone) was “relatively unchanged”. The AUC(0-inf) was 230 ng·h/mL in series [1] (oral, adefovir 10 mg single dose with vadadustat 600 mg QD (Day 7), read-out: AUCinf, geometric LSM, Treatment V + A) and 201 ng·h/mL in series [1] (adefovir 10 mg alone, single oral dose, fasted, read-out: AUCinf, geometric LSM, Treatment A). Besides, the AUC(0-t) in series [1] (oral, adefovir 10 mg single dose with vadadustat 600 mg QD (Day 7), read-out: AUClast, geometric LSM, Treatment V + A) was 227 ng·h/mL; in series [1] (adefovir 10 mg alone, single oral dose, fasted, read-out: AUClast, geometric LSM, Treatment A), 198 ng·h/mL. Besides, the highest concentration (Cmax) in series [1] (oral, adefovir 10 mg single dose with vadadustat 600 mg QD (Day 7), read-out: Cmax, geometric LSM, Treatment V + A) was found to be 17.1 ng/mL; in series [1] (adefovir 10 mg alone, single oral dose, fasted, read-out: Cmax, geometric LSM, Treatment A) it was 17.9 ng/mL.
`O=C(O)CNC(=O)c1ncc(-c2cccc(Cl)c2)cc1O[C@@H]1O[C@H](C(=O)O)[C@@H](O)[C@H](O)[C@H]1O` [Vadadustat-O-Glucuronide]: in series [2] (listed as vadadustat-O-glucuronide), the “increase in exposure (AUC)” value is “about 2 fold”. Further, in series [2] (listed as vadadustat-Oglucuronide), the “increase in exposure (AUC)” value is recorded as approximately 2 fold. Further, in series [2] (in combination with probenecid), the “change of Cmax values” was “relatively unchanged” and the urinary excretion result was “decreased”. Also, in series [2] (setting [7]), the “AUCinf, geometric LSM, Treatment V” value stood at 38240 ng·h/mL; the “AUClast, geometric LSM, Treatment V” value is 37410 ng·h/mL; the “Cmax, geometric LSM, Treatment V” value amounted to 5590 ng/mL. Also, in series [2] (setting [8]), the “AUCinf, geometric LSM, Treatment V + P” value came out at 86580 ng·h/mL; the “AUClast, geometric LSM, Treatment V + P” value came to 83810 ng·h/mL; the “Cmax, geometric LSM, Treatment V + P” value is 6170 ng/mL. Also, in series [2] (setting [9]), the “AUCinf, Ratio (V + P)/V” value was determined as 226.39%; the “AUClast, Ratio (V + P)/V” value was 224.05%; the “Cmax, Ratio (V + P)/V” value was determined as 110.38%. Also, in series [3] (setting [10]), the “AUCinf, geometric LSM, Treatment V + C” value is 39210 ng·h/mL; the “AUClast, geometric LSM, Treatment V + C” value was found to be 38130 ng·h/mL; the “Cmax, geometric LSM, Treatment V + C” value worked out at 3900 ng/mL. In addition, in series [3] (setting [7]), the “AUCinf, geometric LSM, Treatment V” value is 34480 ng·h/mL; the “AUClast, geometric LSM, Treatment V” value was determined as 33430 ng·h/mL; the “Cmax, geometric LSM, Treatment V” value came out at 4500 ng/mL. For the same compound, in series [3] (setting [11]), the “AUCinf, Ratio (V + C)/V” value was found to be 113.74%; the “AUClast, Ratio (V + C)/V” value was found to be 114.04%; the “Cmax, Ratio (V + C)/V” value was determined as 86.63%. Moreover, the “changes in the Cmax and AUC values” in series [3] (vadadustat in combination with cyclosporine) is “no clinically relevant changes”. The “share of the total radioactivity (AUC0-∞) in plasma” value in series [4] is “about 15%”.
`C[C@H]1O[C@@H](O[C@H]2[C@@H](O)C[C@H](O[C@H]3[C@@H](O)C[C@H](O[C@H]4CC[C@@]5(C)[C@H](CC[C@@H]6[C@@H]5C[C@@H](O)[C@]5(C)[C@@H](C7=CC(=O)OC7)CC[C@]65O)C4)O[C@@H]3C)O[C@@H]2C)C[C@H](O)[C@@H]1O` [digoxin]: the AUC(0-t) in series [5] (both sexes, human, plasma, oral, digoxin 0.5 mg single dose with vadadustat 600 mg QD (Day 16), read-out: AUClast, geometric LSM, Treatment V + D) is 31.7 ng·h/mL. Besides, in series [5] (both sexes, human, plasma, digoxin 0.5 mg alone, single oral dose, fasted, read-out: AUCinf, geometric LSM, Treatment D), the AUC(0-inf) amounted to 36.3 ng·h/mL. Moreover, the AUC(0-t) in series [5] (both sexes, human, plasma, digoxin 0.5 mg alone, single oral dose, fasted, read-out: AUClast, geometric LSM, Treatment D) was 34.6 ng·h/mL. Also, the “Cmax, geometric LSM, Treatment D” value in series [5] (digoxin 0.5 mg alone, single oral dose, fasted) amounted to 2.46 ng/mL. In addition, in series [5] (setting [12]), the “AUCinf, geometric LSM, Treatment V + D” value was determined as 33.19 ng·h/mL and the “Cmax, geometric LSM, Treatment V + D” value is recorded as 1.64 ng/mL. Moreover, in series [5] (setting [13]), the “AUCinf, Ratio (V + D)/D” value is 91.37%; the “AUClast, Ratio (V + D)/D” value is on record as 91.49%; the “Cmax, Ratio (V + D)/D” value is on record as 66.92%. For the same compound, the “decrease of digoxin Cmax” value in series [5] (digoxin and vadadustat coadministered vs digoxin alone) is given as approximately 35%. The “total exposure (AUClast and AUCinf) to digoxin” value in series [5] (digoxin following multiple doses of vadadustat vs digoxin alone) was “unchanged”.
